Experimental data from US7456187B2, “Furanopyrimidine compounds as potassium ion channel inhibitors” (Xention Limited, priority 2004, dated 2008).

Experiments:
human Kv1.5 = molecular target: T1, human Kv1.5 (Homo sapiens, UniProt P22460); experiment: Kv1.5 Autopatch Electrophysiology (whole cell patch-clamp); format: cell-based; conditions: compound at 1 μM; cells stably transfected with human Kv1.5; room temperature (22-24° C.); voltage step to 0 mV for 1000 ms from -80 mV, total charge
T1 construct: expressed in transfected cells
T1 sequence (P22460 whole entry): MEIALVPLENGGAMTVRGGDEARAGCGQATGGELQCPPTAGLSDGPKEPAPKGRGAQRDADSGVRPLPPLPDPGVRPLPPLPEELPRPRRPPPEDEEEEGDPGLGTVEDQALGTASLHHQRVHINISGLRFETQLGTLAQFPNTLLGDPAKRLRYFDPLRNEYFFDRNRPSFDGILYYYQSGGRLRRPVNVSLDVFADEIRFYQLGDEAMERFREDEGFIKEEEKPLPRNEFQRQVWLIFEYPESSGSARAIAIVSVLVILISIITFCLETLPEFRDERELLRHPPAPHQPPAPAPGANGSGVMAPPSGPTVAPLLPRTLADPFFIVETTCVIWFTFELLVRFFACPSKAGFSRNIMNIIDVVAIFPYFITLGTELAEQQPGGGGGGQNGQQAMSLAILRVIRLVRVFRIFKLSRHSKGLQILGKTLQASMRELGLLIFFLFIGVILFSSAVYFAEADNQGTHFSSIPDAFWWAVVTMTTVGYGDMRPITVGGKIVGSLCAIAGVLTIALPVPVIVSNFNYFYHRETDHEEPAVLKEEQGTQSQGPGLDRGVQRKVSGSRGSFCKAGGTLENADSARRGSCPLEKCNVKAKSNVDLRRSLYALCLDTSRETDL
Method: Cells stably transfected with cDNA for human Kv1.5 (in pEF6::VA-His-TOPO) were grown in Dulbecco's Modified Eagle media (DMEM) alpha supplemented with 10% Fetal Calf Serum (FCS), 20 μl/ml penicillin (5000 U/ml) streptomycin (5000 μg/ml), 10 μl/ml [100×] glutamine, and blasticidin (7.5 μg/ml).
The external bathing solution contained (in mM): 150 NaCl, 10 KCl, […], 3 MgCl2, 1 CaCl2, 10 HEPES, pH 7.4. Patch pipettes were filled with an electrode solution of composition (in mM): 160 KCl, 0.5 MgCl2, 10 HEPES, 1 EGTA, pH 7.4 with KOH.
Compounds were dissolved in DMSO (100%) and made up in the external bather at a concentration of 1 μM. All experiments were conducted at room temperature (22-24° C.).
A cell suspension (10 ml), with a density of 100,000 cells/ml, was aliquoted into a 15 ml centrifuge tube and transferred to an incubator (37° C., 5% CO2) for approximately one hour before use. Following 60 min incubation, a tube was taken and centrifuged at 1000 rpm for 4 mins at room temperature. 9.5 ml supernatant was thene discarded, leaving a cell pellet at the bottom of the tube. The pellet was then resuspended using 100 μl of cold (4° C.), filtered (0.22 μm), 0.2% BSA/bather solution (0.02 g BSA/10 ml bather). The bottom of the tube was manually agitated gently until the solution became cloudy with cells. The 100 μl cell resuspension solution was then stored on the bench at 4° C. (using a Peltier-based temperature control device) until used.
A length of capillary glass (1B150F-4, WPI) was dipped into the cell suspension solution, such that ˜3 cm column of fluid was taken up by capillary action. An Ag/AgCl wire was dropped into the non-dipped end of the capillary also. The outside of the solution-filled end of the capillary was then dried and the capillary was loaded into the AutoPatch™.
Borosilicate glass patch pipettes (from 1.5 mm OD, thin-walled filamented, GC150-TF capillary glass, Harvard) were pulled using a DMZ pipette puller (Zeitz Instruments), and were back-filled using the internal pipette solution, being careful that no bubbles remain at the tip or in the body of the pipette. Patch pipettes typically had resistances of 2.3-3.5 MΩ. Once filled, the pipette tip and a proportion of the shaft (˜15 mm) were dipped into Sigmacote (Sigma). The recording pipette was then loaded into the AutoPatch™. Automated patch-clamping was initiated by the operator, but thereafter AutoPatch.exe continued the experiment providing that pre-set conditions and criteria were satisfied.
Whole cell patch-clamp recordings were made using the AutoPatch™ rig, which incorporated an EPC9 amplifier (HEKA, Germany) under control of Pulse software (v8.54, HEKA, Germany), a motion controller with 2 translators (Newport, UK), valve controller (VF1) and a c-level suction device all at room temperature (22-24° C.). This equipment was completely under the control of AutoPatch.exe and operator intervention was only made when there was a requirement to refill the drug reservoirs or to prevent the loss of a cell due to a technical error. Cells with an Rseries greater than 18MΩ were discounted from the experiment.
Qualification stages prior to perfusion and drug application ensured that the observed current met the criteria for the experiment. Only those cells with an IK>[…] were used for experiments. Cells were continuously perfused with external solution at a flow rate of 1.8-2 ml/minute. […] Online analysis of the hKv1.5 current during the application of compounds was performed by the AutoPatch™ software.
Electrophysiology voltage-step protocols and analysis of data was performed as follows. Data was sampled at 5 kHz, and filtered with a −3 dB bandwidth of 2.5 kHz. Cells were held at a voltage of −80 mV. Currents were evoked to a voltage step for 1000 ms in duration at 0 mV every 5 s. Currents were analysed using Pulsefit software (v8.54, HEKA, Germany), with the total charge measured during the whole of the voltage step. […]

SMILES | % Inhibition @1 (μM) (human Kv1.5) | melting point | inhibition at 1 µM (human Kv1.5)
c1ccc(-c2coc3ncnc(NCc4ccccn4)c23)cc1 [Example 22, 5-Phenyl-N-(pyridin-2′-ylmethyl)furo[2,3-d]pyrimidin-4-amine] | 54.00% | – | –
COCCOc1nc(NCc2ccccn2)c2c(-c3ccccc3)coc2n1 [Example 51, [2-(2-Methoxyethoxy)-5-phenyl-furo[2,3-d]pyrimidin-4-yl]-pyridin-2-ylmethylamine] | – | 97 to 99 °C | 99%
c1ccc(-c2coc3nc(N4CCOCC4)nc(NCc4ccccn4)c23)cc1 [Example 42, (2-Morpholin-4-yl-5-phenyl-furo[2,3-d]pyrimidin-4-yl)-puridin-2-ylmethyl-amine] | 99.00% | – | –
OCC(CO)Nc1nc(NCc2ccccn2)c2c(-c3ccccc3)coc2n1 [Example 44, 2-{5-Phenyl-4-[(pyridin-2-ylmethyl)-amino]furo[2,3-d]pyrimidin-2-ylamino}-propane-1,3-diol] | – | – | 75%
CN(C)c1nc(NCc2ccccn2)c2c(-c3ccccc3)coc2n1 [Example 46, N^2,N^2-Dimethyl-5-phenyl-N^4-pyridin-2-ylmethyl-furo[2,3-d]pyrimidine-2,4-diamine] | – | 108 to 110 °C | 99%
Cc1oc2ncnc(NCc3ccccn3)c2c1-c1ccccc1 [Example 26, 6-Methyl-5-phenyl-N-(pyridin-2′-ylmethyl)furo[2,3-d]pyrimidin-4-amine] | 83.00% | – | –
Fc1ccc(-c2coc3ncnc(NCc4ccccn4)c23)cc1 [Example 21, 5-(4-Fluorophenyl)-N-(pyridin-2-ylmethyl)furo[2,3-d]pyrimidin-4-amine] | – | 162 to 164 °C | 39.8%
OCCN(CCO)c1nc(NCc2ccccn2)c2c(-c3ccccc3)coc2n1 [Example 43, 2-((2-Hydroxyethyl)-{5-Phenyl-4-[(pyridine-2-ylmethyl)-amino]-furo[2,3-d]pyrimidin-2-yl}-amino)-ethanol] | – | – | 82%
OCCN(CCO)c1nc(NCc2ccccn2)c2c(-c3ccc(F)cc3)coc2n1 [Example 45, 2-((2-Hydroxyethyl)-{5-(4-fluorophenyl)-4-[(pyridine-2-ylmethyl)-amino]-furo[2,3-d]pyrimidin-2-yl}-amino)-ethanol] | – | – | 42%
Clc1ccc(-c2coc3ncnc(NCc4ccccn4)c23)cc1 [Example 23, 5-(4-Chlorophenyl)-N-(pyridin-2′-ylmethyl)furo[2,3-d]pyrimidin-4-amine] | 83.80% | – | –
Cc1oc2nc(N(C)C)nc(NCc3ccccn3)c2c1-c1ccccc1 [Example 49, 6,N^2,N^2-Trimethyl-5-phenyl-N4-pyridin-2-ylmethyl-furo[2,3-d]pyrimidine-2,4-diamine] | – | – | 75%
COc1ccc(-c2coc3ncnc(NCc4ccccn4)c23)cc1OC [Example 24, 5-(3,4-Dimethoxyphenyl)-N-(pyridin-2′-ylmethyl)furo[2,3-d]pyrimidin-4-amine] | 15.81% | – | –
COCCNc1nc(NCc2ccccn2)c2c(-c3ccccc3)coc2n1 [Example 41, N^2-(2-Methoxyethyl)-5-phenyl-N^4-pyridin-2-ylmethyl-furo[2,3-d]pyrimidine-2,4-diamine] | – | 96 to 98 °C | 99%
Cc1cccc(CNc2nc(N(C)C)nc3occ(-c4ccccc4)c23)n1 [Example 47, N^2,N^2-Dimethyl-N^4-(6-methyl-pyridin-2-ylmethyl)-5-phenyl-furo[2,3-d]pyrimidine-2,4-diamine] | – | 52 to 54 °C | 98%
c1ccc(CNc2ncnc3occ(-c4ccc5c(c4)OCO5)c23)nc1 [Example 25, 5-(1,3-Benzodioxol-5′-yl)-N-(pyridin-2′-ylmethyl)furo[2,3-d]pyrimidin-4-amine] | 65.17% | – | –
Cc1oc2nc(N(C)C)nc(NCc3ccccn3)c2c1-c1ccc(F)cc1 [Example 50, 5-(4-Fluorophenyl)-6,N^2,N^2-trimethyl-N^4-pyridin-2-ylmethyl-furo[2,3-d]pyrimidine-2,4-diamine] | – | 107 to 109 °C | 32%
CN(C)c1nc(NCc2ccco2)c2c(-c3ccccc3)coc2n1 [Example 48, N^4-Furan-2-ylmethyl-N^2,N^2-dimethyl-5-phenyl-furo[2,3-d]pyrimidine-2,4-diamine] | – | – | 98%
